The record followed here is ChEMBL document CHEMBL4732070, “Design, synthesis and biological assessment of new selective COX-2 inhibitors including methyl sulfonyl moiety” (Eur J Med Chem, 2021).

Experiment [1] has as its target T1, Prostaglandin G/H synthase 1 (Homo sapiens, UniProt P23219). Description: Inhibition of COX-1 (unknown origin) using arachidonic acid as substrate at 100 uM measured after 10 mins by fluorometric based multimode microplate reader relative to control.
For experiment [2], the target named is T1, Prostaglandin G/H synthase 1. Description: Inhibition of COX-1 (unknown origin) using arachidonic acid as substrate at 1000 uM measured after 10 mins by fluorometric based multimode microplate reader relative to control.
Experiment [3] shares this target. Description: Inhibition of COX-1 (unknown origin) using arachidonic acid as substrate measured after 10 mins by fluorometric based multimode microplate reader.

T1 sequence (P23219 whole entry): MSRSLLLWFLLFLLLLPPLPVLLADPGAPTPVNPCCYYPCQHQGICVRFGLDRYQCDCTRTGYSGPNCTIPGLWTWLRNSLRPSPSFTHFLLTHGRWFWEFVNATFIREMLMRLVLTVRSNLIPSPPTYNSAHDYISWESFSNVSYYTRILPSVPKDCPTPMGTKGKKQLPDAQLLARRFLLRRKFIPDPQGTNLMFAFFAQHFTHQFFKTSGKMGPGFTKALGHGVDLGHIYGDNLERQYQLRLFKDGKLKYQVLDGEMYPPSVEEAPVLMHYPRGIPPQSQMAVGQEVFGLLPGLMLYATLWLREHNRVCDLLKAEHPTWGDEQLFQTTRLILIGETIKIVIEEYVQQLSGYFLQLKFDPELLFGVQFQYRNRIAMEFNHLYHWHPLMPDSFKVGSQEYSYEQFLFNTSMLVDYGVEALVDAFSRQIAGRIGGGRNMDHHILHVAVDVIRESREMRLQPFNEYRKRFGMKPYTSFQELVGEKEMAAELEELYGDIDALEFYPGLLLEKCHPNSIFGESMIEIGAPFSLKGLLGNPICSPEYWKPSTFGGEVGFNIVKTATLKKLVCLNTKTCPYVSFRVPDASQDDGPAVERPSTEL

Usually inhibition stands for the percentage by which the read-out fell short of the control. A low value points to little suppression. Usually IC50 stands for the concentration that gives 50% inhibition. `COc1cc(/C=N/Nc2nc(-c3ccc(S(C)(=O)=O)cc3)cs2)cc(OC)c1O`: the inhibition in experiment [1] stood at 32.3%; in experiment [2], 43.3%. Moreover, the IC50 in experiment [3] was > 1000 µM.
Regarding `CS(=O)(=O)c1ccc(-c2csc(N/N=C/c3cccc(O)c3)n2)cc1`, the values for the inhibition in experiment [1] and in experiment [2] were 40.9% and 66.3%, respectively. In addition, in experiment [3], the IC50 is > 100 µM.
`CS(=O)(=O)c1ccc(-c2csc(N/N=C/c3ccc(O)cc3O)n2)cc1`: the inhibition in experiment [1] stood at 31.4%; in experiment [2], 47.1%. In experiment [3], the IC50 is > 1000 µM.
On the same counts, the results for `COc1ccc(/C=N/Nc2nc(-c3ccc(S(C)(=O)=O)cc3)cs2)cc1OC` are 40%, 55.6% and > 100 µM.
For `CS(=O)(=O)c1ccc(-c2csc(N/N=C/c3ccc(O)cc3)n2)cc1`, in that order: 32.2%, 48.9% and > 1000 µM.
On the same counts, the results for `COc1cccc(/C=N/Nc2nc(-c3ccc(S(C)(=O)=O)cc3)cs2)c1OC` are 40.8%, 57.4% and > 100 µM.
In the case of `COc1ccccc1/C=N/Nc1nc(-c2ccc(S(C)(=O)=O)cc2)cs1`, the figures for the inhibition in experiment [1] and in experiment [2] were 30.8% and 43.1%, respectively. Besides, in experiment [3], the IC50 was > 1000 µM.
Consider `COc1ccc(O)c(/C=N/Nc2nc(-c3ccc(S(C)(=O)=O)cc3)cs2)c1`, for which the figures for the inhibition in experiment [1] and in experiment [2] were 43% and 53%, respectively. Further, the IC50 in experiment [3] was > 100 µM.
For `COc1cc(/C=N/Nc2nc(-c3ccc(S(C)(=O)=O)cc3)cs2)cc(OC)c1OC`, in that order: 35.8%, 45.7% and > 1000 µM.
Take `COc1ccc(/C=N/Nc2nc(-c3ccc(S(C)(=O)=O)cc3)cs2)c(OC)c1`: the inhibition in experiment [1] came to 27.7%; in experiment [2], 44.6%. Also, in experiment [3], the 50% inhibitory concentration (IC50) is > 1000 µM.
On the same counts, the results for `COc1ccc(/C=N/Nc2nc(-c3ccc(S(C)(=O)=O)cc3)cs2)cc1O` are 41.2%, 61.3% and > 100 µM.
With `CC(C)Cc1ccc(C(C)C(=O)O)cc1` (configuration not stated), the inhibition in experiment [1] was 89.4%.
As for `COc1ccc(OC)c(/C=N/Nc2nc(-c3ccc(S(C)(=O)=O)cc3)cs2)c1`, the inhibition amounted to 35% in experiment [1] and 60% in experiment [2]. Also, the IC50 in experiment [3] is > 100 µM.
